Data published in patent US8039585B2, “Therapeutic administration of the scrambled anti-angiogenic peptide C16Y” (The United States of America as represented by the …, priority 2004, dated 2011).
Ends that are not written are not given here.

How the values were obtained:
[1] = tested on: human umbilical vein endothelial cells (HUVECs); assay: Endothelial cell adhesion to peptide-coated plates; format: cell-based; conditions: 0-5 μg coated, 1.5 hours
Description: FIG. 1: Endothelial cell adhesion by C16 and scrambled C16 peptides. 96-well plates were coated with either laminin-1 (0.5 μg), C16 peptide (0-5 μg), or scrambled C16 peptide (0-5 μg). Each well was rinsed with PBS, blocked with BSA, rinsed again with PBS, and then treated with 0.1 ml of RPMI containing 35,000 human umbilical vein endothelial cells (HUVECs) for 1.5 hours at 37° C. Unbound cells were decanted, and attached cells were stained with crystal violet and quantified by measuring their absorbance at 600 nm. Cells adhered to C16, C16S, and C16Y peptides. More cells adhered to C16Y than to any other peptide at all concentrations tested. Bars represent ±SD.
Endothelial cell adhesion assays were performed on 96-well plates coated overnight with either laminin-1 (0.5 μg) or synthetic laminin peptides C16, C16S, C16J, C16L, or C16Y (0-5 μg) as described previously (Malinda 1999). Wells were rinsed with PBS, blocked with 2 mg/ml of BSA, and rinsed again with PBS. Cell adhesion was performed using 0.1 ml of RPMI 1640 containing 35,000 HUVECs. After a 1.5-hour incubation period at 37° C., unbound cells were decanted and attached cells were fixed and stained with 20% methanol/0.2% crystal violet. Dishes were extensively rinsed, and bound dye was solubilized in 2% SDS and quantitated at 600 nm. Assays were done in triplicate at least three times.

[2] = tested on: HUVECs; assay: Endothelial cell tube-forming assay on Matrigel; format: cell-based, human; design: key to Disruption of tube formation / Activity (tube formation, truncated C16Y peptides): +: tubes slightly affected; ++: tubes moderately affected; +++: tubes disrupted; ++++: tubes completely disrupted; −: tubes resemble control; conditions: for Disruption of tube formation: 16 hours
Description: FIG. 3: Disruption of endothelial cell tube formation by C16Y peptide. 48-well plates were coated with 200 μl of Matrigel per well. Each well was treated with RPMI containing 24,000 human umbilical vein endothelial cells (HUVECS) and 100 mg/L endothelial cell growth factor in the presence of 10-75 μg/ml of C16 or scrambled C16 peptide for 16 hours. Control wells contained medium only. Cells were fixed and stained, and tube formation was scored by a blinded observer.
Tube-forming assays were performed as described previously (Ponce 2001). 48-well plates were coated with 200 μl/well of Matrigel (Gho 2001; Kubota 1988), a basement membrane matrix. HUVECs (24,000 cells/well) were plated in RPMI 1640 containing 10% bovine calf serum, defined and supplemented (HyClone Laboratories, Inc., Logan, Utah), along with 100 mg/liter of endothelial cell growth factor (Collaborative Biomedical). C16 or scrambled C16 peptides were added at concentrations ranging from 10-75 μg/ml. Control wells contained medium only. After 16 hours, cells were fixed and stained with Diff-Quick fixative (methanol) and solution II (6.25% (w/v) each of azure A and methylene blue) (Dade A G, Dudingen, Switzerland), and tube formation was scored by a blinded observer. Each peptide was tested at least in triplicate, and the assays were repeated a minimum of three times.
Tube formation assays were repeated using truncated versions of the C16Y peptide to determine the minimal active sequence of the peptide. The carboxyl end of C16Y was not necessary for activity, whereas the amino terminal aspartic acid was required. The minimal active sequence for the C16Y peptide is shown in SEQ ID NO: 2. Each of the peptides containing at least this 8 amino acid sequence (SEQ ID NOs: 1-5) inhibited tube formation.

[3] = tested on: endothelial cell attachment to laminin-1; assay: Competition assay: block of endothelial cell adhesion to laminin-1; format: cell-based, human
Description: FIG. 2: Ability of C16 and scrambled C16 peptides to block laminin-1 endothelial cell adhesion. 96-well plates were coated with laminin-1 (0.5 μg) in the presence of competing C16 or scrambled C16 peptides (0-100 μg/ml). Each wells was treated with 0.1 ml of RPMI containing 35,000 human umbilical vein endothelial cells (HUVECs) for 1.5 hours at 37° C. Unbound cells were decanted, and attached cells were stained with crystal violet and quantified by measuring their absorbance at 600 nm. […] Bars represent ±SD.
Competition experiments were done using 96-well plates coated with laminin-1 (0.5 μg) in the presence of 0-100 μg/ml of competing C16, C16S, C16J, C16L, or C16Y synthetic laminin peptide as specified. Control wells were coated with BSA only. Wells were contacted with 0.1 ml of RPMI 1640 containing 35,000 HUVECs. After a 1.5-hour incubation at 37° C., unbound cells were decanted and attached cells were fixed and stained with 20% methanol/0.2% crystal violet. Dishes were extensively rinsed, and bound dye was solubilized in 2% SDS and quantitated at 600 nm. Assays were done in triplicate at least three times.

[4] = Toxicity statement (no method described)
[5] = tested on: bFGF-induced angiogenesis; assay: CAM assay, bFGF-induced angiogenesis; format: in vivo, chick; conditions: 50 ng bFGF + 0.05 μg peptide
Description: FIG. 5: Inhibition of bFGF-induced angiogenesis by C16Y. 50 ng of angiogenic stimulator (bFGF) and varying concentrations of either C16S or C16Y peptides were applied to 10-day old embryonated eggs in 5 μl of water, and CAMs were analyzed for the presence or absence of angiogenesis.
50 ng of angiogenic stimulator (bFGF) and varying concentrations of either C16S or C16Y peptides were applied to 10-day old embryonated eggs in 5 μl of water, and CAMs were analyzed after 3 days for the presence or absence of angiogenesis.

[6] = tested on: C16-induced angiogenesis in the chick CAM; assay: CAM assay, C16-induced angiogenesis; format: in vivo
Description: FIG. 4: Inhibition of C16-induced angiogenesis by C16Y. 0.5 μg of angiogenic stimulator (C16 peptide) and varying concentrations of either C16S or C16Y peptides were applied to 10-day-old embryonated eggs in 5 μl of water. After 3 days, microphotographs were taken of the eggs to determine angiogenesis levels. Negative control eggs were treated with water only (panel a), while positive control eggs were treated with bFGF only (not shown). As expected, C16 peptide administered alone stimulated angiogenesis (panel d). […] When the amount of inhibitor peptide was lowered to 0.05 μg, C16Y peptide continued to inhibit angiogenesis (panel f), while C16S peptide had no effect (panel c).
The CAM assay was performed using 10-day-old embryonated eggs (CBT, Charlestown, Md.) as described previously (Gho 1999). On embryonal day 3, approximately 4 ml of ovalbumin was removed from each egg. After opening windows on embryonal day 10, the angiogenic stimulus (C16) and test competitor peptides in 5 μl of distilled water were applied to the CAM after drying on 13-mm diameter quartered plastic coverslips (Thermanox; Nalge, NUNC International, Naperville, Ill.). Three days later, the eggs were scored for a positive response and photographed. The positive control was bFGF, and the negative control was the vehicle water. Experiments were repeated twice using a minimum of 11 eggs for each data point.

[7] = tested on: tumor growth and lung colonization; conditions: Fridman 1990; cited from earlier work

Row | Substance | Endothelial cell adhesion to coated peptide [1] | Effect on endothelial tube formation [2] | Disruption of tube formation ([2]; peptide concentration 10 μg/ml) | Disruption of tube formation ([2]; peptide concentration 25 μg/ml) | Disruption of tube formation ([2]; peptide concentration 50 μg/ml) | Disruption of tube formation ([2]; peptide concentration 75 μg/ml) | other results
1 | C16L: scrambled peptide of C16 (LTFRAKVYFIKD-NH2) [Peptide C16L] | did not attach | no activity at lower doses and only slight tube disruption at higher concentrations | − | − | + | ++ | Dose showing some inhibition of attachment to laminin-1 [3]: > 75 µg/mL
2 | DFKLFAVYIKYR-NH2 [Peptide C16Y, DFKLFAVYIKYR] |  |  |  |  |  |  | Toxicity [4]: not toxic
3 | C16S: scrambled peptide of C16, created as a negative control, with antagonist activity (KAFDITYVRLKF; Scrambled version of C16 peptide) [Peptide C16S, reference compound] |  |  | − | − | +++ | +++ | Dose at which tube formation is disrupted (lowest active) ([2]; 10-75 μg/ml tested): 50 µg/mL; Inhibition of angiogenesis [5]: no ability to inhibit angiogenesis; Inhibitory effect on angiogenesis ([6]; 0.5 μg C16 + 0.05 μg inhibitor peptide): no longer generated an inhibitory effect; Reduction in angiogenesis ([6]; 0.5 μg C16 + 0.1 μg inhibitor peptide): 52%; Reduction in angiogenesis ([6]; 0.5 μg C16 + 0.2 μg inhibitor peptide): 63%; Angiogenesis with peptide administered alone ([6]; peptide alone (C16: 0.5 μg)): neither C16Y (FIG. 4, panel e) nor C16S (data not shown) administered alone stimulated angiogenesis
4 | YIGSR |  |  |  |  |  |  | Activity lower than that of C16Y [7]: ~10 fold
5 | C16J: scrambled peptide of C16 (IKDYLTFARVKF-NH2) [Peptide C16J] | only weakly bound | no activity at lower doses and only slight tube disruption at higher concentrations | − | − | − | − | Inhibitory activity on laminin-1 cell adhesion ([3]; 0-100 μg/ml competing peptide): little activity at all of the doses tested
